Reference: patent US6525022B1, “Receptor specific atrial natriuretic peptides” (Genentech, Inc., priority 1993, dated 2003)
Where a SMILES comes first, the peptide text is derived from it. Bridges are numbered along the chain shown (N, C = ends).

What was measured:
hNPR-C [1] = target: T1, hNPR-C (Homo sapiens, UniProt P17342); test: Competitive binding to membranes from cells expressing human NPR-C; parameters: expressed in transfected cells; details: FIG. 19, in comparison to rat ANP
T1 sequence (P17342 27-541): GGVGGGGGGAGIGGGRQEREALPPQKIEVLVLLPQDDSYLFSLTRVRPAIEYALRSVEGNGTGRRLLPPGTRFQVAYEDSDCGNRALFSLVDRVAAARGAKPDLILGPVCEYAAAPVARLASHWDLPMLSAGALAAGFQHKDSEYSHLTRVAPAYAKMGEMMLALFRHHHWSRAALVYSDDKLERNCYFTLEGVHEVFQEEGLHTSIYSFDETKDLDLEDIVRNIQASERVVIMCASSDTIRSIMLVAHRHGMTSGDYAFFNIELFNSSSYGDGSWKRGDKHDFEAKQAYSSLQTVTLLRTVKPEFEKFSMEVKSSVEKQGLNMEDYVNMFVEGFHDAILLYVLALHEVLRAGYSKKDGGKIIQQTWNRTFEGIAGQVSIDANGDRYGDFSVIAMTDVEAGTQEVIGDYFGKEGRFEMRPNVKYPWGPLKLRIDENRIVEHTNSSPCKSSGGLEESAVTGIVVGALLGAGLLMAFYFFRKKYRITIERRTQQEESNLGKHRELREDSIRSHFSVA
Protocol: Membrane preparation. Stable cell lines expressing human NPR-A (Lowe and Fendly, J. Biol. Chem. 267:21691-21697 (1992)) or human NPR-C (Cunningham et al., EMBO J 13, 2508-2515 (1994)) were removed from cell culture dishes with 0.5 mM EDTA in phosphate buffered saline (PBS), placed in ice cold PBS and centrifuged at 228 g for 10 min at 4° C. The cell pellets were resuspended in ice-cold homogenization buffer (50 mM HEPES, 1 mM EDTA, 1 mM DTT, 0.25 M sucrose, 0.7 mg/mL pepstatin A, 0.5 mg/mL leupeptin and 1 mM PMSF, pH 7.4). The cells were then homogenized using a Brinkman polytron at setting 5 for 30 sec. The homogenate was centrifuged at 400×g for 10 min at 4° C. The supernatant was collected and centrifuged at 100,000×g for 30 min at 4° C. […] Protein concentrations was determined using the Biorad protein assay with IgG as a standard.
Membrane competition binding assays. […] The plates were washed six times with PBS, then air dried prior to adding scintillant and counted in a Packard Topcount scintillation counter for 1 min/well. Binding was measured in duplicate for each concentration of competitor.
Data analysis. The competition binding curves and cGMP production dose responses were analyzed by the four-parameter logistic equation with the KaleidaGraph™ program (Synergy Software, PA) to obtain estimates of the IC50 or EC50 values. […]

rhesus monkeys = type: in vivo; details: rhesus monkey
Protocol: Administration of Natriuretic Peptides to Rhesus Monkeys. […] A second iv catheter was inserted for fluid administration and blood withdrawal. A urinary catheter was inserted and urine flow monitored at 10 minute intervals. Urine output and blood withdrawal volumes were replaced by intravenous administration of equal volumes of equal parts of one-half normal saline and 5% (W/V) dextrose in water (D5W). […] Every ten minutes, urine, if present, was collected, the volume recorded and analyzed for sodium and potassium content.

hNPR-A = target: T2, hNPR-A (Homo sapiens, UniProt P16066); test: Competition binding to hNPR-A (Table I, FIG. 5)
T2 sequence (P16066 33-1061): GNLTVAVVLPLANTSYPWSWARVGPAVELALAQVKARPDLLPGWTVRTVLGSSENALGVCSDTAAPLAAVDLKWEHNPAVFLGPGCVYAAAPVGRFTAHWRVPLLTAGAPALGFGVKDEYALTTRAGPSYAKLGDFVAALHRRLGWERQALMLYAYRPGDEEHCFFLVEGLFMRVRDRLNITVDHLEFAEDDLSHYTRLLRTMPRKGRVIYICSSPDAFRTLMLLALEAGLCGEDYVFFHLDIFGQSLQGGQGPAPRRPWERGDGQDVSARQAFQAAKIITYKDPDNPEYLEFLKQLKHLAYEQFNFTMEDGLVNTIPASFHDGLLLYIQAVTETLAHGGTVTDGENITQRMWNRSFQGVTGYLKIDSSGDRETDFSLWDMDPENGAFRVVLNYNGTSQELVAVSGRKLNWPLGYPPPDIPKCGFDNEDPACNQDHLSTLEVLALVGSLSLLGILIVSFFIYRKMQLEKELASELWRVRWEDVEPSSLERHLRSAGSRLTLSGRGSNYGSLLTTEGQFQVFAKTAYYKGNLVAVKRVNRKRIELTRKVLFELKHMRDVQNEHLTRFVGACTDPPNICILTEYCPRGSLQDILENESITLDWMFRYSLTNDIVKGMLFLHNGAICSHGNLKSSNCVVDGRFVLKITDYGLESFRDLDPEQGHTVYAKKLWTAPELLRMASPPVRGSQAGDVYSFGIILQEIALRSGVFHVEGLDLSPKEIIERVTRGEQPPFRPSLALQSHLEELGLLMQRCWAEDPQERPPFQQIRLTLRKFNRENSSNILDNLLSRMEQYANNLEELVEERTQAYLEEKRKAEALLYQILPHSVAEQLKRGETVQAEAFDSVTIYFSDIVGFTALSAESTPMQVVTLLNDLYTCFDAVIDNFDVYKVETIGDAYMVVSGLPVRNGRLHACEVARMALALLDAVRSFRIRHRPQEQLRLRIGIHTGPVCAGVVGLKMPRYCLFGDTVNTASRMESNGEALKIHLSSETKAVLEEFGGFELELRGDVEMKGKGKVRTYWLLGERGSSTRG

hNPR-C [2] = target: T1, hNPR-C; test: Competition binding to hNPR-C (Table I, FIG. 5)

CC[C@H](C)[C@@H]1NC(=O)[C@H](CCCNC(=N)N)NC(=O)[C@H](CC(=O)O)NC(=O)[C@H]([C@@H](C)CC)NC(=O)[C@H](CO)NC(=O)CNC(=O)[C@H]([C@@H](C)O)NC(=O)[C@H](Cc2ccccc2)NC(=O)[C@@H](NC(=O)[C@H](CO)NC(=O)[C@H](CO)NC(=O)[C@H](CCCNC(=N)N)NC(=O)[C@H](CCCNC(=N)N)NC(=O)[C@H](CC(C)C)NC(=O)[C@@H](N)CO)CSSC[C@@H](C(=O)N[C@@H](CC(N)=O)C(=O)N[C@@H](CO)C(=O)N[C@@H](Cc2ccccc2)C(=O)N[C@@H](CCCNC(=N)N)C(=O)N[C@@H](Cc2ccc(O)cc2)C(=O)O)NC(=O)CNC(=O)[C@H](CC(C)C)NC(=O)CNC(=O)[C@H](CO)NC(=O)[C@H](CCC(N)=O)NC(=O)[C@H](C)NC(=O)[C@H](CCCNC(=N)N)NC1=O [ANF 27]
Binding to human NPR-C membranes, competition for 125I-rat ANP (hNPR-C [1]): does not effectively bind

CC[C@H](C)[C@@H]1NC(=O)[C@H](CCCNC(=N)N)NC(=O)[C@H](CC(=O)O)NC(=O)[C@H]([C@@H](C)CC)NC(=O)[C@H](CO)NC(=O)CNC(=O)[C@H]([C@@H](C)O)NC(=O)[C@H](Cc2ccccc2)NC[C@@H](NC(=O)[C@H](CO)NC(=O)[C@H](CO)NC(=O)[C@H](CCCNC(=N)N)NC(=O)[C@H](CCCNC(=N)N)NC(=O)[C@H](CC(C)C)NC(=O)[C@@H](N)CO)CSSC[C@@H](C(=O)N[C@@H](CC(N)=O)C(=O)N[C@@H](CO)C(=O)N[C@@H](Cc2ccccc2)C(=O)N[C@@H](CCCNC(=N)N)C(=O)N[C@@H](Cc2ccc(O)cc2)C(=O)O)NC(=O)CNC(=O)[C@H](CC(C)C)NC(=O)CNC(=O)[C@H](CO)NC(=O)[C@H](CCC(N)=O)NC(=O)[C@H](C)NC(=O)[C@H](CCCNC(=N)N)NC1=O [ANF 84]
Urine flow, potassium excretion and sodium excretion (rhesus monkeys; 7.5 ng/kg/min 60-minute infusion): began to rise in parallel at the beginning of the 7.5 ng/kg/min infusion, but returned to baseline by 60 minutes | Potassium excretion (rhesus monkeys; 25 ng/kg/min infusion): remained at slightly-elevated levels | Sodium excretion above baseline (rhesus monkeys; 25 ng/kg/min infusion): ~100 fold | Urine flow above baseline (rhesus monkeys; 25 ng/kg/min infusion): approximately 10 fold | Systolic arterial pressure (rhesus monkeys; escalating iv infusion from 7.5 ng/kg/min): began to gradually decline | Infusion rate at which dosing was discontinued because of hypotension (rhesus monkeys; in vivo): 25 ng/kg/min

CC[C@H](C)[C@@H]1NC(=O)[C@H](CCCNC(=N)N)NC(=O)[C@H](CC(=O)O)NC(=O)[C@H]([C@@H](C)CC)NC(=O)[C@H](CO)NC(=O)CNC(=O)[C@H]([C@@H](C)O)NC(=O)[C@H](Cc2ccccc2)NC(=O)[C@@H](NC(=O)[C@H](CO)NC(=O)[C@H](CO)NC(=O)[C@H](CCCNC(=N)N)NC(=O)[C@H](CCCNC(=N)N)NC(=O)[C@H](CC(C)C)NC(=O)[C@H](CO)NC(=O)[C@H](CCCNC(=N)N)NC(=O)[C@@H]2CCCN2C(=O)[C@H](C)NC(=O)[C@@H](N)[C@@H](C)O)CSSC[C@@H](C(=O)N[C@@H](CC(N)=O)C(=O)N[C@@H](CO)C(=O)N[C@@H](Cc2ccccc2)C(=O)N[C@@H](CCCNC(=N)N)C(=O)N[C@@H](Cc2ccc(O)cc2)C(=O)O)NC(=O)CNC(=O)[C@H](CC(C)C)NC(=O)CNC(=O)[C@H](CO)NC(=O)[C@H](CCC(N)=O)NC(=O)[C@H](C)NC(=O)[C@H](CCCNC(=N)N)NC1=O [ANF 76] (H-TAPRSLRRSSCFTGSIDRIRAQSGLGCNSFRY-OH; disulfide 11-27; C-terminus assumed)
IC50 (hNPR-A): 8.9 pM | IC50 (hNPR-C [2]): 10 µM
